1 compound from EP1151753B1, “PREVENTIVE AND THERAPEUTIC AGENTS FOR ARTERIOSCLEROSIS” (CCI CORPORATION, priority 1999, dated 2000) can be followed below.

Data set [1] can be described thus: Lipoprotein analysis, cholesterol-loaded rabbit model. It counts as in vivo, New Zealand White (NZW) type rabbits. Conditions: cholesterol-loaded NZW rabbits. The source says: (§1) In the test, female and male New Zealand White (NZW) type rabbits (SPF: Kitayama Labels K.K.) which were seven weeks old at the time of arrival at the laboratory were subjected to quarantine and two weeks' domestication and visually inspected as to the general condition and, after the absence of abnormality was confirmed, put to use. The body weights at the time of starting administration (at the age of nine weeks) were in the range of 1.8 - 2.2 kg in the case of male rabbits and in the range of 1.6 - 2.0 kg in the case of female rabbits. Throughout the entire duration of the test, the animals were raised as accommodated one each in hanger cages of aluminum installed on a stainless steel rack inside a clean feeding chamber set at a temperature in the range of 20 - 26°, a relative humidity in the range of 40 - 70%, a number of ventilations in the range of 10 - 20 turns/hour, and an illumination time within the range of 12 hours (7.00 - 19:00). They were fed on a commercially available radioactively sterilized solid feed (a product containing 1% of cholesterol, made by Oriental Kobo K.K. and sold under the product code of "RC4") and they were left freely drinking the tap water delivered by an automatic water supplying device.
The dosage of TMG was set at 800 mg/head/day. The TMG was solved in reagent grade ethanol. The produced solution was sprayed on the 1% cholesterol-containing feed and the wet feed was left drying in the air. A mixed feed was prepared so as to contain 800 mg of TMG per 100 g of the feed. The mixed feed was given to the rabbits every morning at a rate of 100 g/day per head for 12 weeks for the sake of attaining oral consumption of the TMG. The feed for the control group was obtained by spraying ethanol alone on a feed containing 1% cholesterol and air-drying the wet feed. It was given to the rabbits of the control group at a rate of 100 g/day per heat for 12 weeks. […]
About 10 ml of blood was taken from the heart or the auricular artery of a rabbit experiencing 12 hours' fast prior to the start of the administration and on the 6th and 12th weeks of administration. […] The blood serum was ultracentrifuged by Hatch and Lees method (Hatch, F. T., and Lees, R. S. (1968) Advan, Lipid Res. 6, 1-68) using a centrifuge (the rotor; Beckman 70.1 Ti) made by Beckman and sold under the product code of "L-70") to separate low specific gravity lipoprotein (1.006 < d < 1.063), with the cholesterol amount of the LDL fraction determined by the cholesterol oxidase DASO method and the amount of HDL-cholesterol determined by subjecting the blood serum to the phospho-tungstic acid magnesium salt precipitation method. The amount of TMG was determined by the HPLC method.

The nature of data set [2]: Biochemical test of blood and measurement of body weight, cholesterol-loaded rabbit model. It counts as in vivo, New Zealand White (NZW) type rabbits. Conditions: cholesterol-loaded NZW rabbits. The procedure:
Now, the pharmacogenic effect of the agent of this invention for preventing and curing arteriosclerosis will be described specifically below with reference to a pharmacological test using high cholesterol-loaded rabbits and the WHHL (Watanabe heritable hyperlipidemic) rabbits forming a model of the familial high-cholesterol blood disease. The data were wholly reported by the average ± standard error (SE) and the significant differences among separate groups were determined by the Student's t-test. The risk factor, p < 0.05, was rated as forming a significance of difference.
as §1
The dosage of TMG was set at 800 mg/head/day. The TMG was solved in reagent grade ethanol. The produced solution was sprayed on the 1% cholesterol-containing feed and the wet feed was left drying in the air. A mixed feed was prepared so as to contain 800 mg of TMG per 100 g of the feed. The mixed feed was given to the rabbits every morning at a rate of 100 g/day per head for 12 weeks for the sake of attaining oral consumption of the TMG. The feed for the control group was obtained by spraying ethanol alone on a feed containing 1% cholesterol and air-drying the wet feed. It was given to the rabbits of the control group at a rate of 100 g/day per heat for 12 weeks.
A control group and a TMG-administration group were formed; the control group of a total of six heads composed of three males and three females and the TMG-administration group of a total of eight heads composed of four males and four females. These animals were apportioned to the two groups randomly and nevertheless elaborately so as to avoid confusion of the children of one brood in either group to the fullest possible extent and equalize as much as permissible the average body weights and the average total cholesterol numbers in blood serum of the two groups with the body weights and the total cholesterol numbers found at the time of completion of the domestication.
About 6 ml of blood was taken from the heart or the auricular artery of a rabbit experiencing 12 hours' fast prior to the start of the administration, within 4 and 8 weeks of undergoing administration, and on the final day of administration (12th week). The blood was centrifuged to separate blood serum and the blood serum was analyzed for the items shown in Table 1 by the use of an automatic analyzer (made by Hitachi. Ltd. And sold under the product code of "736-20"). The body weight of each rabbit was measured at the rate of once a week throughout the entire duration of the administration.

Setting [3] is: TMG 800 mg/head/day for 12 weeks.
The mark [4] stands for this setting: TMG 800 mg/head/day in feed, 12th week of administration, average ± SE.
[5] abbreviates: blood serum, TMG 800 mg/head/day in feed, 12th week of administration, average ± SE.

Turning to `Cc1c(C)c2c(c(C)c1O)CCC(C)(C[C@H]1O[C@H](CO)[C@@H](O)[C@H](O)[C@H]1O)O2` (stereo partly drawn) [TMG, 2-(α-D-glucopyranosyl)methyl-2,5,7,8-tetramethyl chroman-6-ol], the LDL-TMG result in data set [1] (amount of TMG in LDL fraction by HPLC, TMG 800 mg/head/day in feed, 12th week of administration) is reported as “not detected”. The “activity of lowering the HDL-cholesterol” value in data set [1] (setting [3]) is on record as “no activity”. In data set [1] (setting [4]), this compound returned an HDL-CHO of 33 ± 5 mg/dL and an LDL-CHO of 620 ± 34 mg/dL. In addition, in data set [2] (setting [5]), the ALB came out at 2.3 ± 0.1 g/dL, the ALP came to 174 ± 15 mU/ml, the ChE worked out at 0.35 ± 0.06 U/ml and the GOT amounted to 19.7±2.2 mU/ml. For the same compound, in data set [2] (setting [5]), the GPT was 72.9 ± 9.1 mU/ml, the LDH is listed as 147 ± 31 mU/ml, the PL was 851 ± 42 mg/dL and the T-CHO is 2628 ± 148 mg/dL. This compound also had a TG in data set [2] (setting [5]) of 250 ± 76 mg/dL. In addition, in data set [2] (setting [3]), the “activity of lowering the blood serum lipids (T-CHO, TG, PL, LDL-CHO)” value is listed as “no activity” and the “biochemical test of blood” value was “no sign of abnormality”. Besides, in data set [2] (setting [4]), the Body weight was 2.89 ± 0.11 kg. The “rise of the GOT, an index of the development of hepatopathy” value in data set [2] (TMG 800 mg/head/day, versus control group) is reported as “significantly repressing the injury”.
